Counter-ions that a name gives are not always drawn.

One data set concerns Homo sapiens. The experiment in a line: Drug elimination in human patient after 5 days of iv infusion. The format is ADME, organism-based. Conditions: in vivo, 120 h.
The next data set deals with COLO 205. The experiment in a line: Antiproliferative activity against human COLO205 cells assessed as inhibition of thymidine uptake after 96 hrs. The class given is functional, cell-based. Conditions: COLO 205, 96 h.
Data set [1] can be described thus: Aqueous solubility at pH 7.4. The class given is physicochemical.
Data set [2] has as its target T1, Aurora kinase B (Homo sapiens, UniProt Q96GD4). The data set can be described thus: Inhibition of aurora B kinase.
In a further data set the target is T2, Aurora kinase A (Homo sapiens, UniProt O14965).
T2 sequence (O14965 whole entry): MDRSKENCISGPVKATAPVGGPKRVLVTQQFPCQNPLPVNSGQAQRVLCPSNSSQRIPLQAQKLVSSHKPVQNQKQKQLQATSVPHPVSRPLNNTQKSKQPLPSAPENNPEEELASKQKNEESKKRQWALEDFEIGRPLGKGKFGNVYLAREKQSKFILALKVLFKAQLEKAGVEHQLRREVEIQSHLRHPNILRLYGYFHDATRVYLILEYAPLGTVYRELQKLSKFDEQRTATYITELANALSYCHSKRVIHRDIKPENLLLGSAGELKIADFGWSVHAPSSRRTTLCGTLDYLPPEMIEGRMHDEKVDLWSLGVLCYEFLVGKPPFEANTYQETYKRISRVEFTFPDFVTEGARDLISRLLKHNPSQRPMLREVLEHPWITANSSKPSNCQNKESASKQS

For a further data set, the target named is T3, Aurora kinase C (Homo sapiens, UniProt Q9UQB9).
T3 sequence (Q9UQB9 whole entry): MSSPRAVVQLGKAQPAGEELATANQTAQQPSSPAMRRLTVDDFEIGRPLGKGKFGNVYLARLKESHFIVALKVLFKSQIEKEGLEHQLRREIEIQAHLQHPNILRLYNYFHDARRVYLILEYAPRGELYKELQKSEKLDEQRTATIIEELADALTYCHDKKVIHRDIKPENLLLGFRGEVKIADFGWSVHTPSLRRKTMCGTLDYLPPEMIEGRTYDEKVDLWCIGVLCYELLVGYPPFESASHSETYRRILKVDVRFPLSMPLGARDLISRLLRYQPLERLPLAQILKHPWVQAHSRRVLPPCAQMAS
The data set can be described thus: Inhibition of aurora C kinase.

Another data set concerns HCT-116. The data set can be described thus: Antiproliferative activity against human HCT116 cells assessed as BrdU incorporation after 72 hrs. The format is functional, cell-based. Particulars: HCT-116, 72 h.
The target of data set [3] is Tyrosine-protein kinase Lck (Homo sapiens, UniProt P06239). The experiment in a line: Inhibition of Lck.
Data set [4] is described as follows: Half life in iv dosed rat. Conditions: in vivo. The class given is ADME, organism-based.
Data set [5] is described as follows: Clearance in iv dosed rat. The format is ADME, organism-based. Conditions: in vivo.
For data set [6], the target named is T1, Aurora kinase B. The data set can be described thus: Inhibition of aurora B in human SW620 cells assessed as inhibition of histone H3 phosphorylation. The format is cell-based, SW-620.
A further data set deals with A2780. The data set can be described thus: Antiproliferative activity against human A2780 cells assessed as accumulation of 4N DNA. The format is functional, cell-based.
Data set [7] in a line: Clearance in iv infused tumor bearing mouse. The format is ADME, organism-based. Particulars: in vivo.
A short description of data set [8]: Volume of distribution in iv infused tumor bearing mouse. The format is ADME, organism-based. Conditions: in vivo.
A short description of data set [9]: Elimination half life in iv infused tumor bearing mouse. Particulars: in vivo, read-out: beta t1/2 (converted). The format is ADME, organism-based.
Data set [10] in a line: Drug level in tumor bearing mouse plasma at 30 mg/kg after 24 hrs. The class given is ADME, organism-based. Set-up: dose 30 mg/kg. Conditions: read-out: Activity.
Data set [11] can be described thus: Drug level in tumor bearing mouse tumor at 30 mg/kg after 24 hrs. The format is ADME, organism-based, Neoplasm. Conditions: read-out: Activity. Also noted: dose 30 mg/kg.
Data set [12] in a line: Bioavailability in […] rat. Particulars: in vivo. The class given is ADME, organism-based.
A short description of data set [13]: Toxicity in po dosed rat assessed at maximum tolerated dose after 2 weeks. The format is organism-based. Conditions: in vivo.
For the next data set, the species on record is Rattus norvegicus. The experiment in a line: Antitumor activity in rat assessed as inhibition of tumor volume. The class given is functional.
For data set [14], the target named is Glycogen synthase kinase-3 beta (Homo sapiens, UniProt P49841). The experiment in a line: Inhibition of Gsk3beta.
For data set [15], the target named is Proto-oncogene tyrosine-protein kinase Src (Homo sapiens, UniProt P12931). The data set can be described thus: Inhibition of Src.
A short description of data set [16]: Volume of distribution at steady state in iv dosed rat. The format is ADME, organism-based. Particulars: in vivo, read-out: Vdss.

T1 sequence (Q96GD4 whole entry): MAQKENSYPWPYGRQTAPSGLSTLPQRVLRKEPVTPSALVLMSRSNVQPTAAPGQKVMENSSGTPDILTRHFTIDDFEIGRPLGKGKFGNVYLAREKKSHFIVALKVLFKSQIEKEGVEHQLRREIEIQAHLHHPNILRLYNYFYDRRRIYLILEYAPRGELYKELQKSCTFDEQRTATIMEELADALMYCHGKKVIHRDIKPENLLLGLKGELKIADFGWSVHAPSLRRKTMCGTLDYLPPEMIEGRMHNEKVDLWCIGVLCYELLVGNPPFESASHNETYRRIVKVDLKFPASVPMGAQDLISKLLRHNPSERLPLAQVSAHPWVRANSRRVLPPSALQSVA
Sequence of Glycogen synthase kinase-3 beta (P49841 whole entry): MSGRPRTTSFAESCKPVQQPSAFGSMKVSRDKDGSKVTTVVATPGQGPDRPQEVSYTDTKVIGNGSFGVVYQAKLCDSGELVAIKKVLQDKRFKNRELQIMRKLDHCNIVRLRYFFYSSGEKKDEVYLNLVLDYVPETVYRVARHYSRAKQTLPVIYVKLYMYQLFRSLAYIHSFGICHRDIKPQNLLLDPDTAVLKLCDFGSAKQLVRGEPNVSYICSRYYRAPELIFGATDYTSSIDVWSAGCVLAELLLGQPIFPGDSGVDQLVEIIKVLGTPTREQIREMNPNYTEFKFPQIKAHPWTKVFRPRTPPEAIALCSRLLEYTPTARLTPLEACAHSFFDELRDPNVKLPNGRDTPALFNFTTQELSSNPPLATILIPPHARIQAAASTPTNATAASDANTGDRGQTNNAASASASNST
Sequence of Proto-oncogene tyrosine-protein kinase Src (P12931 2-536 limits assumed): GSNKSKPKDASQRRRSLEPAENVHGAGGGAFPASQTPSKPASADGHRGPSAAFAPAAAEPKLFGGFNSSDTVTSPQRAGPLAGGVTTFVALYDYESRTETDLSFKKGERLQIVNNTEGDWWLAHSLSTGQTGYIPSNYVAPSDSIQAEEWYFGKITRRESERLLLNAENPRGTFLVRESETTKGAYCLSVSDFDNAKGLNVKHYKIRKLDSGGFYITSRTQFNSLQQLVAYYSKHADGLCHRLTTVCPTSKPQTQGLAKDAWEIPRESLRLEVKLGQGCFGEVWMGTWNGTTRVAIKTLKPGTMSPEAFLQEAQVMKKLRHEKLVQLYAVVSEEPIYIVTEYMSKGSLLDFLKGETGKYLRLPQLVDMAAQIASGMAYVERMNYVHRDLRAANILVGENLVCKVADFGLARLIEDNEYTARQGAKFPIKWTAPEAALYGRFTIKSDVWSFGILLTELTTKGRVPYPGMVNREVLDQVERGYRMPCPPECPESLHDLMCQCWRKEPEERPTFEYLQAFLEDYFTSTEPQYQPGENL
Sequence of Tyrosine-protein kinase Lck (P06239 whole entry): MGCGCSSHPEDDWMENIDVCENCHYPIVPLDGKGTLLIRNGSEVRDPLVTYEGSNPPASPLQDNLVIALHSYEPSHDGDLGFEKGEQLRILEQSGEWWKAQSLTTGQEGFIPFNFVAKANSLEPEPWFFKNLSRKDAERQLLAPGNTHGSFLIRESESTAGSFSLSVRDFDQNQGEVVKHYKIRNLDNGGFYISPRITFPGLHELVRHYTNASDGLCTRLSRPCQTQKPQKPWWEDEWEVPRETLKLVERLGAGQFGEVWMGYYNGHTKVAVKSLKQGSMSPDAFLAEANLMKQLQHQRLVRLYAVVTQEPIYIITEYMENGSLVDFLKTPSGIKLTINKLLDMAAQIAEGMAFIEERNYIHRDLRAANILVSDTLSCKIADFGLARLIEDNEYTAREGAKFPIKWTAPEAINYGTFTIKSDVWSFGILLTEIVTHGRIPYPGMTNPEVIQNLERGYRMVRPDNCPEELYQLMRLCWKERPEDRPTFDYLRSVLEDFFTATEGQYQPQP

In the data set with Homo sapiens, `Cc1cc(Nc2cc(N3CCN(C)CC3)nc(Sc3ccc(NC(=O)C4CC4)cc3)n2)[nH]n1` [TOZASERTIB] registered an Activity of 75%.

With `CCC(=O)Nc1ccc(Sc2nc(Nc3cc(C)n[nH]3)cc(N3CCOCC3)n2)cc1`, the values for the IC50 in the data set on COLO 205, against Aurora kinase B [2] and at Aurora kinase A were 135 nM, 14 nM and 1.7 nM, respectively. In addition, in [1], the concentration in solution (solubility) was 5.4 µM.

At Aurora kinase C, `Cc1nc(N)sc1-c1ccnc(Nc2ccc(N3CCOCC3)cc2)n1` [CYC-116] came in with a half-maximal inhibitory concentration (IC50) of 65 nM.

With `CCC(=O)Nc1ccc(Sc2nc(Nc3cc(C)[nH]n3)cc(N3CCN(C)CC3)n2)cc1`, the IC50 in the data set with COLO 205 is 24 nM; at Aurora kinase B [2] it was 20 nM; on Aurora kinase A, 1.6 nM. Besides, the solubility in data set [1] stood at 63.4 µM.

On to `CC(C)(C)c1ccc(C(=O)Nc2n[nH]c3c2CN(C(=O)Cc2cccs2)C3)cc1`, for which the half-maximal inhibitory concentration (IC50) in the data set on HCT-116 is 2000 nM.

`COc1cc2c(Nc3ncc(CC(=O)Nc4ccccc4)s3)ncnc2cc1OCCCN1CCOCC1`: the IC50 against Aurora kinase B [2] and at Aurora kinase A was below 1 nM each time.

For the compound `O=C(Nc1c[nH]nc1-c1nc2cc(CN3CCOCC3)ccc2[nH]1)NC1CC1` [AT-9283], the IC50 against Aurora kinase B [2] worked out at 3 nM.

For `O=C(Nc1cccc(Cl)c1)Nc1ncc(CCNc2ncnc3ccsc23)s1` [SNS-314 MESYLATE], the EC50 in the data set with HCT-116 is 6 nM.

For `COc1cc2c(Nc3nc(C(=O)Nc4ccccc4)cs3)ncnc2cc1OCCCN1CCOCC1`, the half-maximal inhibitory concentration (IC50) is 530 nM at Aurora kinase B [2] and 182 nM against Aurora kinase A.

As for `CCC(=O)Nc1ccc(Sc2nc(Nc3cc(C)n[nH]3)cc(N3CCN(C4CC4)CC3)n2)cc1`, the IC50 with COLO 205 was 75 nM; against Aurora kinase B [2], 9.5 nM; against Aurora kinase A, below 1 nM. In data set [1], this compound came in with a solubility of 12.8 µM.

On to `COc1cc(Nc2ncc3c(n2)-c2ccc(Cl)cc2C(c2c(F)cccc2OC)=NC3)ccc1C(=O)O` [ALISERTIB], for which, in data set [3], the IC50 was found to be 320 nM.

Take `COc1cc2c(Nc3ccc(C(=O)Nc4ccccc4)s3)ncnc2cc1OCCCN1CCOCC1`: the IC50 stood at 57 nM on Aurora kinase B [2] and 11 nM at Aurora kinase A.

For `CCC(=O)Nc1ccc(Sc2nc(Nc3cc(C)n[nH]3)cc(N3CCN(CC)CC3)n2)cc1`, the IC50 is 24 nM in the data set on COLO 205, 25 nM against Aurora kinase B [2] and below 1 nM on Aurora kinase A. Besides, the solubility in data set [1] worked out at 114 µM.

`CCN(CCCOc1ccc2c(Nc3cc(CC(=O)Nc4cccc(F)c4)n[nH]3)ncnc2c1)CCOP(=O)(O)O` [BARASERTIB]: the half-life in data set [4] is 5 h. The same compound yielded a clearance in data set [5] of 14 mL/min/kg.

As for `COc1cc2c(Nc3cc(CC(=O)Nc4cccc(F)c4F)[nH]n3)ncnc2cc1OCCCN(CCO)CC(C)C`, the IC50 is below 1 nM on Aurora kinase B [6], below 1 nM on Aurora kinase B [2] and 18 nM on Aurora kinase A.

Take `CN1CCN(c2ccc(C(=O)Nc3n[nH]c4c3CN(C(=O)Cc3cccs3)C4)cc2)CC1`: in the data set with HCT-116, the IC50 was determined as 570 nM.

Turning to `CCN(CCO)CCCOc1cc2ncnc(Nc3cc(CC(=O)Nc4cccc(F)c4)[nH]n3)c2cc1OC`, the half-maximal inhibitory concentration (IC50) worked out at 270 nM at Aurora kinase B [6], 1 nM at Aurora kinase B [2] and 190 nM at Aurora kinase A.

As for `CO[C@@H](C(=O)N1Cc2n[nH]c(NC(=O)c3ccc(N4CCN(C)CC4)cc3)c2C1)c1ccccc1` [DANUSERTIB], the IC50 in the data set on A2780 was found to be 28000 nM. In data set [7], this compound had a clearance of 28.3 mL/min/kg. The Vd in data set [8] came to 2.7 L/kg. Further, in [9], the half-life is 3.7 h.

Turning to `CCC(=O)Nc1ccc(Sc2nc(Nc3cc(C)n[nH]3)cc(N3CCCCC3)n2)cc1`, the IC50 in the data set on COLO 205 amounted to 400 nM; against Aurora kinase B [2], 8 nM; against Aurora kinase A it was 1.6 nM. Further, the solubility in data set [1] was 2.5 µg/mL.

`CCC(=O)Nc1ccc(Sc2nc(Nc3cc(C)n[nH]3)cc(N3CCN(C(C)(C)C)CC3)n2)cc1`: the values for the IC50 with COLO 205, at Aurora kinase B [2] and at Aurora kinase A were 2 nM, 11 nM and 1.3 nM, respectively. This compound also yielded a solubility in [1] of 221 µM.

In turn, `COc1cc2c(Nc3cnc(NC(=O)c4ccccc4)nc3)ncnc2cc1OCCCN1CCOCC1` returned an IC50 at Aurora kinase B [2] of 1 nM.

In the case of `O=C(Nc1ccccc1)Nc1ncc(CCNc2ncnc3ccsc23)s1`, the EC50 with HCT-116 amounted to 45 nM.

Take `CCC(=O)Nc1ccc(Sc2nc(Nc3cc(C)n[nH]3)cc(N3CCNCC3)n2)cc1`: the IC50 with COLO 205 is 79 nM; at Aurora kinase B [2], 18 nM; at Aurora kinase A, 3.7 nM. The concentration in solution in [1] (solubility) was 296 µM.

For `O=C(O)c1ccc(Nc2ncc3c(n2)-c2ccc(Cl)cc2C(c2c(F)cccc2F)=NC3)cc1` [MLN-8054], the concentration at 24 h in data set [10] is above 1000 nM; in [11], above 2000 nM.

For the compound `CCCN(CCO)CCCOc1cc2ncnc(Nc3cc(CC(=O)Nc4cccc(F)c4)[nH]n3)c2cc1OC`, the results for the IC50 on Aurora kinase B [6], against Aurora kinase B [2] and on Aurora kinase A were 290 nM, 2 nM and 220 nM, respectively.

Regarding `CCN(CCO)CCCOc1cc2ncnc(Nc3cc(CC(=O)Nc4cccc(F)c4F)[nH]n3)c2cc1OC`, the IC50 at Aurora kinase B [6] is 45 nM; at Aurora kinase B [2] it was below 1 nM; at Aurora kinase A it was 360 nM.

Consider `O=C(Nc1cccc(C(F)(F)F)c1)Nc1ncc(CCNc2ncnc3ccsc23)s1`, for which the EC50 with HCT-116 is 13 nM.

In data set [4], `CC(=O)Nc1ccc(Sc2nc(Nc3cc(C)n[nH]3)c3ccccc3n2)cc1` gave a half-life of 1 h. This compound also showed a bioavailability in data set [12] of 44%. In data set [13], this compound came in with an MTD at 336 h of 300 mg/kg. Besides, the “inhibition (INH)” value in the data set filed under Rattus norvegicus stood at 50%. For the same compound, the Ki was 1030 nM in [14], 1260 nM in data set [15], 27 nM at Aurora kinase B [2] and 4 nM on Aurora kinase A. Further, in the data set on COLO 205, the IC50 amounted to 480 nM. For the same compound, the Vd in data set [16] amounted to 0.38 L/kg. For the same compound, the clearance in data set [5] is 7 mL/min.

For the compound `CCN(CCO)CCCOc1ccc2c(Nc3cc(CC(=O)Nc4cccc(F)c4F)[nH]n3)ncnc2c1`, the IC50 on Aurora kinase B [2] turned out to be 7.5 nM; at Aurora kinase A it was 800 nM.

Regarding `COc1cc2c(Nc3ncc(C(=O)Nc4ccccc4)s3)ncnc2cc1OCCCN1CCOCC1`, the IC50 on Aurora kinase B [2] turned out to be 42 nM; on Aurora kinase A, 4 nM.

`Cc1cc(Nc2nc(-c3ccccc3)nc3ccccc23)n[nH]1`: the Ki was 22 nM in [14], 81 nM in data set [15] and 58 nM at Aurora kinase A. The IC50 in the data set on COLO 205 was 1400 nM.

Values taken from ChEMBL document CHEMBL1154007, “Discovery and development of aurora kinase inhibitors as anticancer agents” (J Med Chem, 2009).
